# Data from ChEMBL document CHEMBL1145370, “Alpha-methylation at benzylic fragment of N-aryl-N'-benzyl ureas provides TRPV1 antagonists with better pharmacokinetic properties and higher efficacy in inflammatory pain model” (Bioorg Med Chem Lett, 2007).
# Tests used:
# [1] = biological target: Transient receptor potential cation channel subfamily V member 1 (Homo sapiens, UniProt Q8NER1); experiment: Antagonist activity at human TRPV1 by calcium influx assay; format: functional
# [2] = Half life in rat at 10 umol/kg, iv; format: ADME, organism-based; conditions: in vivo
# [3] = Volume of distribution in rat at 10 umol/kg, iv; format: ADME, organism-based; conditions: in vivo, read-out: Vbeta
# [4] = Bioavailability in rat at 10 umol/kg, po; format: ADME, organism-based; conditions: in vivo
# [5] = Half life in dog at 10 umol/kg, iv; format: ADME, organism-based, Canis lupus familiaris; conditions: in vivo
# [6] = Plasma clearance in rat at 10 umol/kg, iv; format: ADME, organism-based
# [7] = Bioavailability in dog at 10 umol/kg, po; format: ADME, organism-based, Canis lupus familiaris; conditions: in vivo
# [8] = Volume of distribution in dog at 10 umol/kg, iv; format: ADME, organism-based, Canis lupus familiaris; conditions: in vivo, read-out: Vbeta
# [9] = Plasma clearance in dog at 10 umol/kg, iv; format: ADME, organism-based, Canis lupus familiaris
# Chain of Transient receptor potential cation channel subfamily V member 1 (Q8NER1 whole entry): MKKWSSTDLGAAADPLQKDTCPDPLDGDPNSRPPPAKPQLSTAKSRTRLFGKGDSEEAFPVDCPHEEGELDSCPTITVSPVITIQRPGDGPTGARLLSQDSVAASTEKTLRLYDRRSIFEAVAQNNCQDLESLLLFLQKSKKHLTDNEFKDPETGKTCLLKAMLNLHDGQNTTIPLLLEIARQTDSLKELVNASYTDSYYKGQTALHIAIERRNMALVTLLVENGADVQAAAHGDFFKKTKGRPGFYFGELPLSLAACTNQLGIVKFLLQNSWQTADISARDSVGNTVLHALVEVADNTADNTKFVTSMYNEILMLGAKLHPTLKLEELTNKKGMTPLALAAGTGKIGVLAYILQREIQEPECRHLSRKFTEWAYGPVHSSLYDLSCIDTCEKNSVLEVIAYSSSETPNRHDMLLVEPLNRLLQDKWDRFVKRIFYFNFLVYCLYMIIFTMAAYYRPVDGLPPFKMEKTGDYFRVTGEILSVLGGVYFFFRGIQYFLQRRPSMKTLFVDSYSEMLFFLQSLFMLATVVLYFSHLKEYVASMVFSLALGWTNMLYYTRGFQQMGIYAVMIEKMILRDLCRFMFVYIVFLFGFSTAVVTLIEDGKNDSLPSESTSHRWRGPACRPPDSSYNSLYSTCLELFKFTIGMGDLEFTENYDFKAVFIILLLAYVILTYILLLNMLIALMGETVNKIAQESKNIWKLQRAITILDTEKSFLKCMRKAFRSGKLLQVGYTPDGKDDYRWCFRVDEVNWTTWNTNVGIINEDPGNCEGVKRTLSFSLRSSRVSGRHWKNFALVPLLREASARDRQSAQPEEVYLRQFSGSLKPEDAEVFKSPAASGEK
smiles,measurement,setting,value
O=C(Nc1cccc2cnccc12)NC(c1ccccc1)c1ccc(C(F)(F)F)cc1 (stereo not given),IC50,[1],147 nM
O=C(Nc1cccc2cnccc12)NC(c1ccc(C(F)(F)F)cc1)C1CC1 (stereo not given),IC50,[1],149 nM
C[C@@H](NC(=O)Nc1cccc2[nH]ncc12)c1ccc(C(F)(F)F)cc1,half-life,[2],2.1 h
same,IC50,[1],41 nM
same,Vd,[3],2.9 L/kg
same,bioavailability,[4],53%
CC(C)(NC(=O)Nc1cccc2cnccc12)c1ccc(Cl)cc1,IC50,[1],143 nM
O=C(NCc1ccc(C(F)(F)F)cc1)Nc1cccc2cnccc12,half-life,[5],1 h
same,clearance,[6],10 mL/min/kg
same,bioavailability,[7],32%
same,Vd,[8],0.5 L/kg
same,half-life,[2],0.6 h
same,clearance,[9],6.67 mL/min/kg
same,Vd,[3],0.6 L/kg
CCC(NC(=O)Nc1cccc2cnccc12)c1ccccc1 (stereo not given),IC50,[1],2580 nM
CN(C)CC(NC(=O)Nc1cccc2cnccc12)c1ccccc1 (stereo not given),IC50,[1],31000 nM
Cc1ccc([C@H](C)NC(=O)Nc2cccc3[nH]ncc23)cc1,IC50,[1],749 nM
CC(NC(=O)Nc1cccc2cnccc12)c1ccc(C(F)(F)F)c(F)c1 (stereo not given),IC50,[1],19 nM
O=C(Nc1cccc2cnccc12)NC(c1ccc(C(F)(F)F)cc1)C1CCCCC1 (stereo not given),IC50,[1],287 nM
CC(NC(=O)Nc1cccc2[nH]ncc12)c1ccc(C(F)(F)F)cc1 (racemic),IC50,[1],47 nM
CCC(NC(=O)Nc1cccc2cnccc12)c1ccc(C(F)(F)F)c(F)c1 (stereo not given),IC50,[1],109 nM
C[C@H](NC(=O)Nc1cccc2[nH]ncc12)c1ccc(C(F)(F)F)cc1,IC50,[1],248 nM
C[C@@H](NC(=O)Nc1cccc2[nH]ncc12)c1cccc2ccccc12,IC50,[1],123 nM
N#CCC(NC(=O)Nc1cccc2cnccc12)c1ccccc1 (stereo not given),IC50,[1],15900 nM
Cc1cc(C(C)(C)C)ccc1C(C)NC(=O)Nc1cccc2cnccc12 (stereo not given),IC50,[1],46 nM
CC(C)(NC(=O)Nc1cccc2cnccc12)c1ccc(C(F)(F)F)cc1,IC50,[1],94 nM
CC(NC(=O)Nc1cccc2cnccc12)c1ccc(C(F)(F)F)cc1 (stereo not given),half-life,[5],1.6 h
same,clearance,[6],11.7 mL/min/kg
same,bioavailability,[7],98%
same,Vd,[8],1.1 L/kg
same,half-life,[2],1.1 h
same,IC50,[1],22 nM
same,clearance,[9],8.33 mL/min/kg
same,Vd,[3],1.1 L/kg
same,bioavailability,[4],47%
Cc1ccc([C@@H](C)NC(=O)Nc2cccc3[nH]ncc23)cc1,IC50,[1],73 nM
O=C(Nc1cccc2cnccc12)NC(c1ccccc1)c1ccc(N2CCCCC2)cc1 (stereo not given),IC50,[1],171 nM
CC(C)(C)c1ccc(C(NC(=O)Nc2cccc3cnccc23)c2ccccc2)cc1 (stereo not given),IC50,[1],125 nM
CCc1cc(C(C)(C)C)ccc1C(C)NC(=O)Nc1cccc2cnccc12 (stereo not given),IC50,[1],20 nM
O=C(Nc1cccc2cnccc12)NC(c1ccc(C(F)(F)F)cc1)C1CCCC1 (stereo not given),IC50,[1],476 nM
O=C(Nc1cccc2cnccc12)NC(c1ccccc1)c1ccccc1,IC50,[1],600 nM
CC(NC(=O)Nc1cccc2cnccc12)c1ccc(C(C)(C)C)cc1 (stereo not given),IC50,[1],24 nM
CC(NC(=O)Nc1cccc2cnccc12)c1ccc(C(C)(C)C)cc1C(C)(C)C (stereo not given),IC50,[1],17 nM
CC(NC(=O)Nc1cccc2cnccc12)c1ccc(Br)cc1 (stereo not given),IC50,[1],26 nM
C[C@H](NC(=O)Nc1cccc2[nH]ncc12)c1cccc2ccccc12,IC50,[1],3750 nM
